Our source for the Emax values is patent US8802700B2 (Vertex Pharmaceuticals Incorporated, priority 2010, dated 2014).

For the assay, the target named is T1, ΔF508-CFTR (Homo sapiens, UniProt P13569, DEL508-508).
T1 construct: expressed in transfected cells
Briefly: Membrane potential optical assay (FRET voltage-sensor dyes, VIPR), identification of potentiator compounds. It counts as cell-based. The conditions noted are these: Table 3; assay not given; read-out: % Activity (% Efficacy, relative efficacy). The essentials:
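Potentiator screen measured membrane potential via FRET between CC2-DMPE donor and DiSBAC2(3), read on VIPR II. Compound went in with the first addition of chloride-free gluconate bath; cells were ΔF508-CFTR-expressing NIH3T3 mouse fibroblasts, temperature-corrected at 27 °C for 24 h.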

T1 sequence (P13569 with tags, fused parts or gaps DEL508-508): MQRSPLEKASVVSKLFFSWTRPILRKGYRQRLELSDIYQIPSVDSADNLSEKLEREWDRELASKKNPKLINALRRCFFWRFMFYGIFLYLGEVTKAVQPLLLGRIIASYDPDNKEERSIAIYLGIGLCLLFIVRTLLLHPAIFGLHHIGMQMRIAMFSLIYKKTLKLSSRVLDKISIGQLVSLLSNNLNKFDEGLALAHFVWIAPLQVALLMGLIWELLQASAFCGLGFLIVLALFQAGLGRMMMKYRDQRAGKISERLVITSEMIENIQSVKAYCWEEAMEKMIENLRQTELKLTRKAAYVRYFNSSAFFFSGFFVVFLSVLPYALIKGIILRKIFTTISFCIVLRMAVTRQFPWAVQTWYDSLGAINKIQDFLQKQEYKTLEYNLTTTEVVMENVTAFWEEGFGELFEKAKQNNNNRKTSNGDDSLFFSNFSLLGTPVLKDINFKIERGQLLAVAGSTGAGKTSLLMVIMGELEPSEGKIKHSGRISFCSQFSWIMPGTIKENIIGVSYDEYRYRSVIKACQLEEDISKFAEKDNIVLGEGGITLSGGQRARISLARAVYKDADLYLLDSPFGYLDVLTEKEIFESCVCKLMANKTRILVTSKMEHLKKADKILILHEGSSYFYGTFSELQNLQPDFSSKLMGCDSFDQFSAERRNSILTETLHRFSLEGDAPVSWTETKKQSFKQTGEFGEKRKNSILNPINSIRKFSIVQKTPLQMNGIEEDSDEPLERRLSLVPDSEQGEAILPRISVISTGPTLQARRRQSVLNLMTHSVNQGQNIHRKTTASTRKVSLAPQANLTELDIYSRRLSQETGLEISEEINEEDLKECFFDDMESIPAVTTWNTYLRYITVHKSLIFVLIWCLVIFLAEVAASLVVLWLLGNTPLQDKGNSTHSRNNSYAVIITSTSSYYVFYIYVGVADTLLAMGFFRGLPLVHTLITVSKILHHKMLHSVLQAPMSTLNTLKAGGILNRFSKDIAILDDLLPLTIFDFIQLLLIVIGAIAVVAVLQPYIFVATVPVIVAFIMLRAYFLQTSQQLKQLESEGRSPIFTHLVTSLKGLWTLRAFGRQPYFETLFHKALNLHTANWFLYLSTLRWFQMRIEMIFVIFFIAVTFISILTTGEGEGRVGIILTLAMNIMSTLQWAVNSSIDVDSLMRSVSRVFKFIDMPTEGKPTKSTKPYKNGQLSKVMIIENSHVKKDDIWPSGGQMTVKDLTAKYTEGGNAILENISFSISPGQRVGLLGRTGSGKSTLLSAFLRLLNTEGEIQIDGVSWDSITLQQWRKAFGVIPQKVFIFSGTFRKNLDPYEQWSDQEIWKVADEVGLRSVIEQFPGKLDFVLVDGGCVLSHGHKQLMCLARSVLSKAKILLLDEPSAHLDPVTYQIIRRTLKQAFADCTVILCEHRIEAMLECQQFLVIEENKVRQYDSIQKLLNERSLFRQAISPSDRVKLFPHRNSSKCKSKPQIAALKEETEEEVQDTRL

As for `CC(C)(C)c1cc(C(C)(C)C)c(NC(=O)c2c[nH]c3ccc(Cl)cc3c2=O)cc1O` [Compound 623, 6-chloro-N-(5-hydroxy-2,4-ditert-butyl-phenyl)-4-oxo-1H-quinoline-3-carboxamide], the Emax was in the range of 25 to 100%. To `Cc1ccc2[nH]cc(C(=O)Nc3cc(O)c(C4(C)CCCCC4)cc3F)c(=O)c2c1` [Compound 624, N-[2-fluoro-5-hydroxy-4-(1-methylcyclohexyl)-phenyl]-6-methyl-4-oxo-1H-quinoline-3-carboxamide] belongs 25 to 100%; to `Cc1cccc2c(=O)c(C(=O)Nc3cc(O)c(C(C)(C)C)cc3F)c[nH]c12` [Compound 625, N-(2-fluoro-5-hydroxy-4-tert-butyl-phenyl)-8-methyl-4-oxo-1H-quinoline-3-carboxamide], < 25%; to `Cc1cccc2[nH]cc(C(=O)Nc3ccc(N4CC[C@H](F)C4)cc3C(F)(F)F)c(=O)c12` [Compound 626, (S)-N-(4-(3-fluoropyrrolidin-1-yl)-2-(trifluoromethyl)phenyl)-5-methyl-4-oxo-1,4-dihydroquinoline-3-carboxamide], 25 to 100%. With `CC(CO)(CO)c1ccc(NC(=O)c2c[nH]c3ccc(F)cc3c2=O)cc1` [Compound 627, 6-fluoro-N-[4-[2-hydroxy-1-(hydroxymethyl)-1-methyl-ethyl]phenyl]-4-oxo-1H-quinoline-3-carboxamide], the Emax is < 25%. The result for `O=C(Nc1ccc(OC(F)(F)F)cc1Cl)c1c[nH]c2ccccc2c1=O` [Compound 628, N-[2-chloro-4-(trifluoromethoxy)phenyl]-4-oxo-1H-quinoline-3-carboxamide] reads 25 to 100%. The result for `CC(C)(C)OC(=O)[C@@H]1CCCN1c1ccc(NC(=O)c2c[nH]c3ccccc3c2=O)c(C(F)(F)F)c1` [Compound 629, (S)-tert-butyl 1-(4-(4-oxo-1,4-dihydroquinoline-3-carboxamido)-3-(trifluoromethyl)phenyl)pyrrolidine-2-carboxylate] reads 25 to 100%. The result for `O=C(Nc1cc(C(F)(F)F)ccc1C(F)(F)F)c1c[nH]c2ccccc2c1=O` [Compound 630, N-[2,5-bis(trifluoromethyl)phenyl]-4-oxo-1H-quinoline-3-carboxamide] reads 25 to 100%; that for `COC(=O)[C@]1(C)CCCN1c1ccc(NC(=O)c2c[nH]c3ccccc3c2=O)c(C(F)(F)F)c1` [Compound 631, (S)-methyl 2-methyl-1-(4-(4-oxo-1,4-dihydroquinoline-3-carboxamido)-3-(trifluoromethyl)phenyl)pyrrolidine-2-carboxylate], > 100%; that for `CC(C)(C)c1cc2cc[nH]c2cc1NC(=O)c1c[nH]c2cc(OC(F)(F)F)ccc2c1=O` [Compound 632, 4-oxo-N-(5-tert-butyl-1H-indol-6-yl)-7-(trifluoromethoxy)-1H-quinoline-3-carboxamide], 25 to 100%. In the case of `CC(C)(C)c1ccc(NC(=O)c2c[nH]c3cccc(O)c3c2=O)cc1O` [Compound 633, 5-hydroxy-N-(3-hydroxy-4-tert-butyl-phenyl)-4-oxo-1H-quinoline-3-carboxamide], the Emax was in the range of 25 to 100%. Turning to `O=C(Nc1ccc(N2CCC[C@H]2CO)cc1C(F)(F)F)c1c[nH]c2ccccc2c1=O` [Compound 634, (S)-N-(4-(2-(hydroxymethyl)pyrrolidin-1-yl)-2-(trifluoromethyl)phenyl)-4-oxo-1,4-dihydroquinoline-3-carboxamide], the Emax was in the range of 25 to 100%. The result for `O=C(Nc1ccc(C(F)(F)F)cc1Cl)c1c[nH]c2cccc(O)c2c1=O` [Compound 635, N-[2-chloro-4-(trifluoromethyl)phenyl]-5-hydroxy-4-oxo-1H-quinoline-3-carboxamide] reads 25 to 100%; that for `O=C(Nc1ccc(C(F)(F)F)cc1Cl)c1c[nH]c2ccc(F)cc2c1=O` [Compound 636, N-[2-chloro-4-(trifluoromethyl)phenyl]-6-fluoro-4-oxo-1H-quinoline-3-carboxamide], < 25%. The result for `Cc1cccc2c(=O)c(C(=O)Nc3ccc(C(C)C)cc3C(F)(F)F)c[nH]c12` [Compound 637, N-[4-isopropyl-2-(trifluoromethyl)phenyl]-8-methyl-4-oxo-1H-quinoline-3-carboxamide] reads < 25%; that for `CC(C)(C)c1cc(F)c(NC(=O)c2c[nH]c3c(C(F)(F)F)cccc3c2=O)cc1O` [Compound 638, N-(2-fluoro-5-hydroxy-4-tert-butyl-phenyl)-4-oxo-8-(trifluoromethyl)-1H-quinoline-3-carboxamide], < 25%. Take `CC(C)N1CCN(c2ccc(NC(=O)c3c[nH]c4ccccc4c3=O)c(C(F)(F)F)c2)CC1` [Compound 639, N-[4-(4-isopropylpiperazin-1-yl)-2-(trifluoromethyl)phenyl]-4-oxo-1H-quinoline-3-carboxamide]: the Emax was 25 to 100%. On to `Cc1ccc2c(=O)c(C(=O)Nc3cc(O)c(C(C)(C)C)cc3C(C)(C)C)c[nH]c2c1` [Compound 640, N-(5-hydroxy-2,4-ditert-butyl-phenyl)-7-methyl-4-oxo-1H-quinoline-3-carboxamide], for which the Emax was > 100%. On to `CCOc1cccc2c(=O)c(C(=O)Nc3cc4[nH]ccc4cc3C(C)(C)C)c[nH]c12` [Compound 641, 8-ethoxy-4-oxo-N-(5-tert-butyl-1H-indol-6-yl)-1H-quinoline-3-carboxamide], for which the Emax is < 25%. For the molecule `COc1ccc2c(=O)c(C(=O)Nc3ccc(N4CCC[C@@H]4C)cc3C(F)(F)F)c[nH]c2c1` [Compound 642, (S)-7-methoxy-N-(4-(2-methylpyrrolidin-1-yl)-2-(trifluoromethyl)phenyl)-4-oxo-1,4-dihydroquinoline-3-carboxamide], the Emax is 25 to 100%. As to `Cc1cccc2[nH]cc(C(=O)Nc3ccc(N4CCCC(C)C4)cc3C(F)(F)F)c(=O)c12` (stereo not drawn) [Compound 643, 5-methyl-N-[4-(3-methyl-1-piperidyl)-2-(trifluoromethyl)phenyl]-4-oxo-1H-quinoline-3-carboxamide], the Emax lay within 25 to 100%. With `Cc1cccc2c(=O)c(C(=O)Nc3cc4[nH]ccc4cc3C(C)(C)C)c[nH]c12` [Compound 644, 8-methyl-4-oxo-N-(5-tert-butyl-1H-indol-6-yl)-1H-quinoline-3-carboxamide], the Emax was < 25%. `CC(C)(C)c1ccc(NC(=O)c2c[nH]c3ccccc3c2=O)cc1F` [Compound 645, N-(3-fluoro-4-tert-butyl-phenyl)-4-oxo-1H-quinoline-3-carboxamide]: the Emax fell in the range of 25 to 100%. To `CC(C)(C)c1cc2cc[nH]c2cc1NC(=O)c1c[nH]c2cc(F)c(F)cc2c1=O` [Compound 646, 6,7-difluoro-4-oxo-N-(5-tert-butyl-1H-indol-6-yl)-1H-quinoline-3-carboxamide] belongs 25 to 100%.

`Cc1cc(C2CCCCC2)ccc1NC(=O)c1c[nH]c2ccccc2c1=O` [Compound 647, N-(4-cyclohexyl-2-methyl-phenyl)-4-oxo-1H-quinoline-3-carboxamide]: the Emax lay in the range of 25 to 100%.

For `CCc1cc(C(C)(C)C)c(O)cc1NC(=O)c1c[nH]c2ccc(F)cc2c1=O` [Compound 649, N-(2-ethyl-5-hydroxy-4-tert-butyl-phenyl)-6-fluoro-4-oxo-1H-quinoline-3-carboxamide], the Emax lay within 25 to 100%. Take `O=C(Nc1ccc(C(F)(F)F)c(O)c1)c1c[nH]c2ccc(F)cc2c1=O` [Compound 650, 6-fluoro-N-[3-hydroxy-4-(trifluoromethyl)phenyl]-4-oxo-1H-quinoline-3-carboxamide]: the Emax was 25 to 100%. As for `O=C(Nc1ccc(C2CCCCC2)c(O)c1)c1c[nH]c2ccc(F)cc2c1=O` [Compound 651, N-(4-cyclohexyl-3-hydroxy-phenyl)-6-fluoro-4-oxo-1H-quinoline-3-carboxamide], the Emax was in the range of 25 to 100%.

Turning to `CC(C)(C)c1cc(C(C)(C)C)c(NC(=O)c2c[nH]c3cc(O)ccc3c2=O)cc1O` [Compound 652, 7-hydroxy-N-(5-hydroxy-2,4-ditert-butyl-phenyl)-4-oxo-1H-quinoline-3-carboxamide], the Emax was in the range of 25 to 100%. Consider `O=C(Nc1cc(OCc2ccccc2)c(C2CCCCC2)cc1C(F)(F)F)c1c[nH]c2ccccc2c1=O` [Compound 654, N-[5-benzyloxy-4-cyclohexyl-2-(trifluoromethyl)phenyl]-4-oxo-1H-quinoline-3-carboxamide], for which the Emax is 25 to 100%. As for `O=C(Nc1ccc(N2CC[C@H](O)C2)cc1C(F)(F)F)c1c[nH]c2ccccc2c1=O` [Compound 655, (S)-N-(4-(3-hydroxypyrrolidin-1-yl)-2-(trifluoromethyl)phenyl)-4-oxo-1,4-dihydroquinoline-3-carboxamide], the Emax was in the range of 25 to 100%. Turning to `CC(C)(C)c1cc2cc[nH]c2cc1NC(=O)c1c[nH]c2cccc(F)c2c1=O` [Compound 656, 5-fluoro-4-oxo-N-(5-tert-butyl-1H-indol-6-yl)-1H-quinoline-3-carboxamide], the Emax was 25 to 100%. `CC(C)c1ccc(NC(=O)c2c[nH]c3ccc(Cl)cc3c2=O)c(C(F)(F)F)c1` [Compound 657, 6-chloro-N-[4-isopropyl-2-(trifluoromethyl)phenyl]-4-oxo-1H-quinoline-3-carboxamide]: the Emax was 25 to 100%. As to `O=C(Nc1ccc(N2CCCC2)cc1C(F)(F)F)c1c[nH]c2ccccc2c1=O` [Compound 658, 4-oxo-N-[4-pyrrolidin-1-yl-2-(trifluoromethyl)phenyl]-1H-quinoline-3-carboxamide], the Emax was 25 to 100%. To `CCc1cc(C(C)(C)C)c(O)cc1NC(=O)c1c[nH]c2ccccc2c1=O` [Compound 659, N-(2-ethyl-5-hydroxy-4-tert-butyl-phenyl)-4-oxo-1H-quinoline-3-carboxamide] belongs 25 to 100%; to `CCOC(=O)[C@H]1CCCN(c2ccc(NC(=O)c3c[nH]c4ccccc4c3=O)c(C(F)(F)F)c2)C1` [Compound 660, (S)-ethyl 1-(4-(4-oxo-1,4-dihydroquinoline-3-carboxamido)-3-(trifluoromethyl)phenyl)piperidine-3-carboxylate], 25 to 100%.
